Measurements taken from patent US9833497B2, “Human originated EGF domain proteins and use of the same” (CHENGDU SOURCEBIO LIMITED-LIABILITY COMPANY, priority 2013, dated 2017).

Assays:
Assay type in all cases: cell-based
Proteus vulgaris = assay: MIC against Gram-negative bacteria: Proteus vulgaris; settings: 5×10^5 CFU/mL
In short: (§1)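 Growth inhibition by human EGF domain proteins was scored in LB liquid culture seeded at 5×10^5 CFU/mL. Protein was applied as a two-fold dilution series in triplicate, with shaking incubation at 37° C; MIC is the lowest concentration giving no growth.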

Serratia marcescens = assay: MIC against Gram-negative bacteria: Serratia marcescens; settings: 5×10^5 CFU/mL
In short: as §1

E. coli BL21 = assay: MIC against Gram-negative bacteria: E. coli BL21; settings: 5×10^5 CFU/mL
In short: as §1

Aeromonas hydrophila = assay: MIC against Gram-negative bacteria: Aeromonas hydrophila; settings: 5×10^5 CFU/mL
In short: as §1

Moraxella catarrhalis = assay: MIC against Gram-negative bacteria: Moraxella catarrhalis; settings: 5×10^5 CFU/mL
In short: as §1

Enterobacter cloacae = assay: MIC against Gram-negative bacteria: Enterobacter cloacae; settings: 5×10^5 CFU/mL
In short: as §1

Proteus mirabilis = assay: MIC against Gram-negative bacteria: Proteus mirabilis; settings: 5×10^5 CFU/mL
In short: as §1

E. coli DH5α = assay: Antibacterial activity: MIC and growth curve against E. coli DH5α in 96-well plate; settings: minimal inhibitory concentration against E. coli DH5α; 96-well plate, 5×10^5 CFU/mL, 37° C., judged after 8 h
In short: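 Log-phase DH5α (OD600 about 0.5, 37° C, 185 rpm in LB) was pelleted, resuspended in fresh LB and seeded at 5×10^5 CFU/mL with recombinant protein at 50, 25 and 12.5 μg/mL (two-fold series), in triplicate. Plates were shaken at 175 rpm, 37° C, and OD600 was read every 30 min. MIC was the lowest concentration with no growth.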

Klebsiella pneumonia = assay: MIC against Gram-negative bacteria: Klebsiella pneumonia; settings: 5×10^5 CFU/mL
In short: as §1

Citrobacter diversus = assay: MIC against Gram-negative bacteria: Citrobacter diversus; settings: 5×10^5 CFU/mL
In short: as §1

Pseudomonas aeruginosa = assay: MIC against Gram-negative bacteria: Pseudomonas aeruginosa; settings: 5×10^5 CFU/mL
In short: as §1

PRT733 (SSNGCSNNMNACQQICLPVPGGLFSCACATGFKLNPDNRSCS; listed as Homo sapiens)
12.5 µg/mL: MIC P. vulgaris (Proteus vulgaris; 96-well plate, 37° C., 10 h) | MIC E. coli BL21 (E. coli BL21; 96-well plate, 37° C., 10 h) | MIC A. hydrophila (Aeromonas hydrophila; 96-well plate, 37° C., 10 h) | MIC K. pneumonia (Klebsiella pneumonia; 96-well plate, 37° C., 10 h)
25 µg/mL: MIC S. marcescens (Serratia marcescens; 96-well plate, 37° C., 10 h) | MIC P. mirabilis (Proteus mirabilis; 96-well plate, 37° C., 10 h) | MIC C. diversus (Citrobacter diversus; 96-well plate, 37° C., 10 h)
50 µg/mL: MIC M. catarrhalis (Moraxella catarrhalis; 96-well plate, 37° C., 10 h) | MIC E. cloacae (Enterobacter cloacae; 96-well plate, 37° C., 10 h) | MIC (E. coli DH5α) | MIC P. aeruginosa (Pseudomonas aeruginosa; 96-well plate, 37° C., 10 h)

PRT634 (DIDECQHRHLCAHGQCRNTEGSFQCVCDQGYRASGLGDHCE; listed as Homo sapiens)
50 µg/mL: MIC P. aeruginosa (Pseudomonas aeruginosa; 96-well plate, 37° C., 10 h)
25 µg/mL: MIC S. marcescens (Serratia marcescens; 96-well plate, 37° C., 10 h) | MIC E. coli BL21 (E. coli BL21; 96-well plate, 37° C., 10 h) | MIC A. hydrophila (Aeromonas hydrophila; 96-well plate, 37° C., 10 h) | MIC M. catarrhalis (Moraxella catarrhalis; 96-well plate, 37° C., 10 h) | MIC P. mirabilis (Proteus mirabilis; 96-well plate, 37° C., 10 h) | MIC K. pneumonia (Klebsiella pneumonia; 96-well plate, 37° C., 10 h)
12.5 µg/mL: MIC P. vulgaris (Proteus vulgaris; 96-well plate, 37° C., 10 h) | MIC E. cloacae (Enterobacter cloacae; 96-well plate, 37° C., 10 h) | MIC (E. coli DH5α) | MIC C. diversus (Citrobacter diversus; 96-well plate, 37° C., 10 h)

PRT1392 (TELCTMECGSHGVCSRGICQCEEGWVGPTC; listed as Homo sapiens)
25 µg/mL: MIC against P. vulgaris (Proteus vulgaris; Proteus vulgaris, 10 h cultivation at 37° C.) | MIC against E. coli BL21 (E. coli BL21; E. coli BL21, 10 h cultivation at 37° C.) | MIC against A. hydrophila (Aeromonas hydrophila; Aeromonas hydrophila, 10 h cultivation at 37° C.) | MIC against M. catarrhalis (Moraxella catarrhalis; Moraxella catarrhalis, 10 h cultivation at 37° C.) | MIC against K. pneumonia (Klebsiella pneumonia; Klebsiella pneumonia, 10 h cultivation at 37° C.)
12.5 µg/mL: MIC against E. cloacae (Enterobacter cloacae; Enterobacter cloacae, 10 h cultivation at 37° C.) | MIC against P. mirabilis (Proteus mirabilis; Proteus mirabilis, 10 h cultivation at 37° C.) | MIC (E. coli DH5α) | MIC against C. diversus (Citrobacter diversus; Citrobacter diversus, 10 h cultivation at 37° C.) | MIC against P. aeruginosa (Pseudomonas aeruginosa; Pseudomonas aeruginosa, 10 h cultivation at 37° C.)
50 µg/mL: MIC against S. marcescens (Serratia marcescens; Serratia marcescens, 10 h cultivation at 37° C.)

PRT445 (DVNECELYGQEGRPRLCMHACVNTPGSYRCTCPGGYRTLADGKSCE; listed as Homo sapiens)
50 µg/mL: MIC (E. coli DH5α) | MIC against C. diversus (Citrobacter diversus; 96-well plate, 37° C., 10 h) | MIC against P. aeruginosa (Pseudomonas aeruginosa; 96-well plate, 37° C., 10 h)
25 µg/mL: MIC against A. hydrophila (Aeromonas hydrophila; 96-well plate, 37° C., 10 h) | MIC against K. pneumonia (Klebsiella pneumonia; 96-well plate, 37° C., 10 h)
12.5 µg/mL: MIC against P. vulgaris (Proteus vulgaris; 96-well plate, 37° C., 10 h) | MIC against S. marcescens (Serratia marcescens; 96-well plate, 37° C., 10 h) | MIC against E. coli BL21 (E. coli BL21; 96-well plate, 37° C., 10 h) | MIC against M. catarrhalis (Moraxella catarrhalis; 96-well plate, 37° C., 10 h) | MIC against E. cloacae (Enterobacter cloacae; 96-well plate, 37° C., 10 h) | MIC against P. mirabilis (Proteus mirabilis; 96-well plate, 37° C., 10 h)

PRT115 (SRNPCSSSPCRGGATCVLGPHGKNYTCRCPQGYQLDSSQLDCV; listed as Homo sapiens)
50 µg/mL: MIC (μg/mL) E. coli BL21 (E. coli BL21; E. coli BL21, 96-well plate, 37° C., 10 h) | MIC (μg/mL) M. catarrhalis (Moraxella catarrhalis; Moraxella catarrhalis, 96-well plate, 37° C., 10 h) | MIC (μg/mL) K. pneumonia (Klebsiella pneumonia; Klebsiella pneumonia, 96-well plate, 37° C., 10 h)
25 µg/mL: MIC (μg/mL) E. cloacae (Enterobacter cloacae; Enterobacter cloacae, 96-well plate, 37° C., 10 h) | MIC (μg/mL) C. diversus (Citrobacter diversus; Citrobacter diversus, 96-well plate, 37° C., 10 h)
12.5 µg/mL: MIC (μg/mL) P. vulgaris (Proteus vulgaris; Proteus vulgaris, 96-well plate, 37° C., 10 h) | MIC (μg/mL) S. marcescens (Serratia marcescens; Serratia marcescens, 96-well plate, 37° C., 10 h) | MIC (μg/mL) A. hydrophila (Aeromonas hydrophila; Aeromonas hydrophila, 96-well plate, 37° C., 10 h) | MIC (μg/mL) P. mirabilis (Proteus mirabilis; Proteus mirabilis, 96-well plate, 37° C., 10 h) | MIC (E. coli DH5α) | MIC (μg/mL) P. aeruginosa (Pseudomonas aeruginosa; Pseudomonas aeruginosa, 96-well plate, 37° C., 10 h)
